# Test system: Cotton aphid (Aphis gossypii), mixed life stages
# Experiment: Cotton aphid foliar dip test, mortality
# Type: in vivo
# Details: 120 h, infested cotton cotyledons dipped 3 seconds, determined after 5 days, read-out: mortality of cotton aphid in comparison with untreated controls
# Procedure: (§1) The active compounds were formulated in a mixture of 50 vol.-% acetone: 50 vol.-% water. A nonionic surfactant (Kinetic®) was included in the solution at a volume of 0.01% v/v.
# (§2) In the following tests, the formulated solutions of the active compounds were diluted to an active ingredient concentration of 300 ppm and the diluted solutions were applied in the below mentioned tests.
# Cotton plants at the cotyledon stage were infested prior to treatment by placing a heavily infested leaf from the main aphid colony on top of each cotyledon. The aphids were allowed to transfer overnight and the host leaf was removed. The infested cotyledons were then dipped and agitated in the test solution for 3 seconds and allowed to dry in a fume hood. Test plants were maintained under fluorescent lighting in a 24-hr photoperiod at 25° C. and 20-40% relative humidity. Aphid mortality on the treated plants, relative to mortality on untreated check plants, was determined after 5 days. In this test, test compounds B, C and F at 300 ppm provided 100%, and 86-99% mortality, respectively, of cotton aphid (Aphis gossypii, mixed life stages) in comparison with untreated controls. Test compound A at 300 ppm provided 75-85% mortality, respectively, of cotton aphid (Aphis gossypii, mixed life stages) in comparison with untreated controls.
row,SMILES,mortality at 300 ppm [%]
1,"Clc1cncc(OC[C@H]2CCCN2)c1 [Compound A, R-3-Chloro-5-(pyrrolidin-2-ylmethyloxy)-pyridine]",75 to 85
2,"CC(C)(C)C(=O)ON1CCCC1COc1cncc(Cl)c1 (stereo not drawn) [Compound B, 2,2-Dimethyl-propionic acid 2-(5-chloropyridin-3-yloxymethyl)pyrrolidin-1-yl ester]",100
3,"CC(Oc1ccc(Cl)nc1)C1CCCN1 (stereo not drawn) [Compound F, 2-Chloro-5-(1-pyrrolidin-2-ylethoxy)-pyridine]",86 to 99

# Test system: Green peach aphid (Myzus persicae), mixed life stages
# Experiment: Green peach aphid foliar dip test, mortality
# Type: in vivo
# Details: 120 h, infested bell pepper leaves dipped 3 seconds, determined after 5 days, read-out: mortality of green peach aphid in comparison with untreated controls
# Procedure: as §1, §2
# Bell pepper plants at the first true-leaf stage were infested prior to treatment by placing heavily infested leaves from the main aphid colony on top of the treatment plants. The aphids were allowed to transfer overnight to accomplish an infestation of 30-40 aphids per plant and the host leaves were removed. The infested leaves of the test plants were then dipped and agitated in the test solution for 3 seconds and allowed to dry in a fume hood. Test plants were maintained under fluorescent lighting in a 24-hr photoperiod at 25° C. and 20-40% relative humidity. Aphid mortality on the treated plants, relative to mortality on untreated check plants, was determined after 5 days. Test compound A provided 85% mortality while test compounds B and C each provided 100% mortality of green peach aphid (Myzus persicae, mixed life stages) in comparison with untreated controls, when applied at 300 ppm. Test Compounds D, E, F, G and H each provided >85% mortality of green peach aphid (Myzus persicae, mixed life stages) in comparison with untreated controls, when applied at 300 ppm.
row,SMILES,mortality at 300 ppm [%]
1,"CC(Oc1ccc(Cl)nc1)C1CCCN1OC(=O)c1ccccc1 (racemic) [Compound E, Benzoic acid 2-[1-(6-chloropyridin-3-yloxy)-ethyl]-pyrrolidin-1-yl ester]",> 85
2,"Clc1cncc(OC[C@H]2CCCN2)c1 [Compound A, R-3-Chloro-5-(pyrrolidin-2-ylmethyloxy)-pyridine]",85
3,"CC(C)(C)C(=O)ON1CCCC1COc1cncc(Cl)c1 (stereo not drawn) [Compound B, 2,2-Dimethyl-propionic acid 2-(5-chloropyridin-3-yloxymethyl)pyrrolidin-1-yl ester]",100
4,"CC(Oc1ccc(Cl)nc1)C1CCCN1 (stereo not drawn) [Compound F, 2-Chloro-5-(1-pyrrolidin-2-ylethoxy)-pyridine]",> 85
5,"CC(Oc1cncc(Cl)c1)C1CCCN1 (stereo not drawn) [Compound G, 3-Chloro-5-(1-pyrrolidin-2-ylethoxy)-pyridine]",> 85
6,"C[C@@H](Oc1cncc(Cl)c1)C1CCN1 (stereo partly drawn) [Compound H, 2S-3-(1-Azetidin-2-yl-ethoxy)-5-chloro-pyridine]",> 85
